The test system of data set [1] is MCF-7 human breast cancer cells. Put plainly: MCF-7 breast cancer cell growth inhibition. The class given is cell-based.
Procedure: MCF-7 human breast cancer cells were grown in medium containing 1 μM selenium (Se) for 7 days which increased cellular thioredoxin reductase activity by about 5 fold as previously reported.
The target in data set [2] is T1, human thioredoxin reductase (Homo sapiens, UniProt Q16881).
T1 construct: (placenta); from tissue; host or cells: human placenta
T1 sequence (Q16881 151-649 limits assumed): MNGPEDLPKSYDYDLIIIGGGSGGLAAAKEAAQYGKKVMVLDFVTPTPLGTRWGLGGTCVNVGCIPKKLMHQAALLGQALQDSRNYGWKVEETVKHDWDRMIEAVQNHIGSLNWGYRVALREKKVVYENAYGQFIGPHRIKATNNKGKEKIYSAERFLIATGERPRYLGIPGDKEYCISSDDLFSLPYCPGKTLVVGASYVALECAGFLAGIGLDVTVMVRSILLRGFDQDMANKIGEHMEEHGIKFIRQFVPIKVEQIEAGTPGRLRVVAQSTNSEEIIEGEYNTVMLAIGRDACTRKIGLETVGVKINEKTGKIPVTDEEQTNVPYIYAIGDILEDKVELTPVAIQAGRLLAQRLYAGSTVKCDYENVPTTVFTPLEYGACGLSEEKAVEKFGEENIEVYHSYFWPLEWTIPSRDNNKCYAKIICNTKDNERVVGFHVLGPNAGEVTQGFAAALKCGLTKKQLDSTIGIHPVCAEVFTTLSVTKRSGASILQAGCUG
The data set can be described thus: Inhibition of purified human thioredoxin reductase (TrxR/TR). The format is biochemical.

Data set [3] in a line: Stability in fresh mouse plasma at room temperature. The format is in vitro ADME. The procedure:
(§1) Two metabolite peaks could be seen at 5 minutes, but were undetectable by 30 minutes.

The nature of data set [4]: Aqueous solubility. The format is physicochemical.
Data set [5] is described as follows: Plasma levels in mice after i.v. administration. The note with it: after PX-916 i.v. to mice. The format is in vivo, mouse. Also on record: dose or concentration left out as unconfirmed. Here is the method: as §1
Data set [6] in a line: pH dependent stability in water / 0.1M sodium phosphate buffer. The format is physicochemical. The note with it: for half-life at 100 g/ml / T1/2: 100 g/ml in 0.1M sodium phosphate buffer. Here is the method: PX-916 was stable as a stock solution in ethanol at room temperature with a half life of >5 days. […] Therefore, for in vitro studies PX-916 was used as a stock solution in ethanol, and for in vivo studies made fresh in pH 4.0 buffer vehicle.
Further palmarumycin analogs were synthesized and tested. The following analogs were synthesized: eee269-II, eee86-III, eee263-II and eee273-II. The stability of the analogs was measured in various solutions.

Data set [7] in a line: Stability of prodrugs in mouse plasma (formation of parent compound). The class given is in vitro ADME. The note with it: first 20 min of incubation at 1 mg/ml and 33° C. The procedure:
(§2) The stability of the analogs and formation of the parent compound in plasma was measured and is presented in FIG. 7, FIG. 8 and Table 6 (measured by the formation of parent compound over the first 20 min of incubation at 1 mg/ml and at 33° C.), below.

The nature of data set [8]: Stability of prodrugs in human plasma (formation of parent compound). The class given is in vitro ADME. The conditions noted are these: first 20 min of incubation at 1 mg/ml and 33° C. Here is the method: as §2
A short description of data set [9]: Stability of prodrugs in ES1e mouse plasma (formation of parent compound). The format is in vitro ADME. The note with it: first 20 min of incubation at 1 mg/ml and 33° C. The procedure: as §2
Where [10] appears, read: Homo sapiens, MCF7, Table 1, read-out: MCF-7 growth inhibition IC50.
The mark [11] stands for this setting: Table 1, read-out: TrxR inhibitory activity IC50.
The mark [12] stands for this setting: Table 2, read-out: Inhibition of human thioredoxin reductase IC50.

Like-named read-outs stand apart in the source and are kept apart here.

`CC(C)C(N)C(=O)Oc1ccc2c3c(cccc13)OC1(C=CC(=O)c3ccccc31)O2` (stereo not shown) [Compound 11]: the values for the IC50 in [1] (setting [10]) and in data set [2] (setting [11]) were 2200 nM and 620 nM, respectively.
For `O=C1C=CC2(Oc3cccc4c(OCCN5CCOCC5)ccc(c34)O2)c2ccccc21` (stereo not shown) [Compound 13], in that order: 1200 nM and 1600 nM.
For `O=C1C=CC2(Oc3cccc4c(OCCN5CCOCC5)ccc(c34)O2)c2cccc(O)c21` (stereo not shown) [Compound 14], in that order: 2600 nM and 4200 nM.
`COc1ccc2c3c(cccc13)OC1(C=CC(=O)c3ccccc31)O2` (stereo not shown) [PX-911]: the IC50 was 9200 nM in data set [1] (Homo sapiens, MCF7, Table 2, read-out: Inhibition of MCF-7 breast cancer cell growth IC50) and 3200 nM in data set [2] (setting [12]).
What is called half-life is the time in which the quantity being followed falls by half. What is called solubility is the concentration that dissolves in the medium under given conditions. Regarding `O=C1C=CC2(Oc3cccc4c(O)ccc(c34)O2)c2cccc(O)c21` (stereo not shown) [PX-960], the “half life in mouse plasma” value in data set [3] is “about 31 minutes”. This compound returned a half-life in [3] of about 0.517 h. The IC50 came out at 4100 nM in data set [1] (Homo sapiens, MCF7, read-out: Inhibition of MCF-7 breast cancer cell growth IC50); 2600 nM in data set [1] (setting [10]); 200 nM in data set [2] (setting [11]); 270 nM in data set [2] (setting [12]). The solubility in data set [4] (water, read-out: water solubility) is under 100 µg/mL. The entries for the “detection of PX-960 in plasma” value in data set [5] (at 5 minutes) and in [5] (at 30 minutes) were “only a very small peak” and “No PX-960 was detected”, respectively.
On to `O=C1C=CC2(Oc3cccc4c(OC5OC(CO)C(O)C(O)C5O)ccc(c34)O2)c2cccc(O)c21` (stereo not shown) [eee86-III], for which the half-life at 100 g/ml in data set [6] (pH 4.0) and in data set [6] (pH 7.0) was over 100 h in each case.
Regarding `CC(C)(N)C(=O)Oc1ccc2c3c(cccc13)OC1(C=CC(=O)c3c(O)cccc31)O2` (stereo not shown) [eee263-II], the “formation of parent compound, Mouse Plasma” value in [7] is given as 42 area/20 min. The “formation of parent compound, Human plasma” value in [8] stood at 81 area/20 min. Besides, the “formation of parent compound, ES1e mouse plasma” value in data set [9] is 82 area/20 min. Moreover, the T1/2 in [6] (pH 4.0) and in [6] (pH 7.0) was over 100 h each time.
`CC(C)(NNC1CC(=O)c2c(O)cccc2C12Oc1cccc3c(O)ccc(c13)O2)C(N)=O` (stereo not shown) [eee269-II]: the values for the half-life at 100 g/ml in [6] (pH 4.0) and in [6] (pH 7.0) were over 100 h and 0.2 h, respectively. Also, in data set [6] (in words), the “stability in aqueous solutions” value is “unstable in aqueous solutions”.
With `NC(Cc1ccccc1)C(=O)Oc1ccc2c3c(cccc13)OC1(C=CC(=O)c3c(O)cccc31)O2` (stereo not shown) [eee273-II], the “solubility at 1 mg/ml” value in [4] (1 mg/ml, plasma stability study) is “very insoluble”. The half-life at 100 g/ml in [6] (pH 4.0) and in [6] (pH 7.0) was over 100 h in each case.
`O=C1C=CC2(Oc3cccc4cccc(c34)O2)c2cccc(O)c21` [palmarumycin C1, palmarumycin CP1, reference compound]: the IC50 in data set [1] (Table 2, read-out: Inhibition of MCF-7 breast cancer cell growth IC50) was 1000 nM; in data set [1] (text b151, summary of Table 2, read-out: concentration of cell growth inhibition of MCF-7 cells), 1000 to 3000 nM; in [2] (setting [12]), 350 nM. In addition, in data set [4] (in words), the “solubility in aqueous media” value is “almost insoluble in aqueous media”.

The values above are taken from patent publication US20120226031A1, “PALMARUMYCIN BASED INHIBITORS OF THIOREDOXIN AND METHODS OF USING SAME” (ARIZONA BOARD OF REGENTS, ACTING ON BEHALF OF THE …, priority 2005, published 2012).
